Source: PubChem BioAssay (NCI)
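Five compound concentrations were applied to cells in 96-well plates for 48 hours; endpoints were derived by simple linear interpolation of the resulting dose-response curve. TGI: total growth inhibition.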

Columns and labels:
Experiment in all cases: NCI tumour cell line growth inhibition, 48 h
[1] = tested on: HL-60(TB) leukemia
[2] = tested on: A498 renal
[3] = tested on: HCC-2998 colon
[4] = tested on: UO-31 renal
[5] = tested on: MDA-MB-435
[6] = tested on: KM12 colon
[7] = tested on: MDA-N
[8] = tested on: SNB-19 CNS
[9] = tested on: DU-145 prostate
[10] = tested on: UACC-62 melanoma
[11] = tested on: HCT-116 colon
[12] = tested on: SF-295 CNS
[13] = tested on: SW-620 colon
[14] = tested on: MCF7 breast
[15] = tested on: PC-3 prostate
[16] = tested on: HS 578T breast
[17] = tested on: EKVX NSCLC
[18] = tested on: SK-MEL-5 melanoma
[19] = tested on: K-562 leukemia
[20] = tested on: NCI/ADR-RES ovarian
[21] = tested on: SR leukemia
[22] = tested on: ACHN renal
[23] = tested on: SF-539 CNS
[24] = tested on: NCI-H226 lung
[25] = tested on: OVCAR-4 ovarian
[26] = tested on: OVCAR-8 ovarian
[27] = tested on: 786-0 renal
[28] = tested on: MOLT-4 leukemia
[29] = tested on: SNB-75 CNS
[30] = tested on: UACC-257 melanoma
[31] = tested on: TK-10 renal
[32] = tested on: NCI-H23 lung
[33] = tested on: HOP-62 NSCLC
[34] = tested on: SK-MEL-2 melanoma
[35] = tested on: COLO 205 colon
[36] = tested on: HCT-15 colon
[37] = tested on: BT-549 breast
[38] = tested on: OVCAR-5 ovarian
[39] = tested on: MALME-3M melanoma
[40] = tested on: CAKI-1 renal
[41] = tested on: SK-MEL-28 melanoma
[42] = tested on: U251 CNS
[43] = tested on: IGROV1 ovarian
[44] = tested on: MDA-MB-231 breast
[45] = tested on: HT29 colon
[46] = tested on: RXF 393 renal
[47] = tested on: SF-268 CNS
[48] = tested on: RPMI-8226 leukemia
[49] = tested on: OVCAR-3 ovarian
[50] = tested on: NCI-H522 lung
[51] = tested on: SN12C renal
[52] = tested on: NCI-H460 lung
[53] = tested on: LOX IMVI melanoma
[54] = tested on: SK-OV-3 ovarian
[55] = tested on: HOP-92 NSCLC
[56] = tested on: A549 NSCLC
[57] = tested on: CCRF-CEM leukemia
[58] = tested on: M14 melanoma

SMILES: O=c1[nH]c2[nH]c(-c3ccc(Br)cc3)cc2c2ccccc12
- TGI [1]: 28 µM
- TGI [2]: > 100 µM
- TGI [3]: > 100 µM
- TGI [4]: > 100 µM
- TGI [5]: > 100 µM
- TGI [6]: > 100 µM
- TGI [7]: > 100 µM
- TGI [8]: > 100 µM
- TGI [9]: > 100 µM
- TGI [10]: > 100 µM
- TGI [11]: > 100 µM
- TGI [12]: > 100 µM
- TGI [13]: > 100 µM
- TGI [14]: > 100 µM
- TGI [15]: > 100 µM
- TGI [16]: 38.5 µM
- TGI [17]: > 100 µM
- TGI [18]: > 100 µM
- TGI [19]: > 100 µM
- TGI [20]: > 100 µM
- TGI [21]: 26.9 µM
- TGI [22]: > 100 µM
- TGI [23]: > 100 µM
- TGI [24]: > 100 µM
- TGI [25]: > 100 µM
- TGI [26]: > 100 µM
- TGI [27]: > 100 µM
- TGI [28]: 26.9 µM
- TGI [29]: 37.1 µM
- TGI [30]: > 100 µM
- TGI [31]: > 100 µM
- TGI [32]: > 100 µM
- TGI [33]: 53.9 µM
- TGI [34]: > 100 µM
- TGI [35]: > 100 µM
- TGI [36]: > 100 µM
- TGI [37]: > 100 µM
- TGI [38]: > 100 µM
- TGI [39]: > 100 µM
- TGI [40]: > 100 µM
- TGI [41]: > 100 µM
- TGI [42]: 92.1 µM
- TGI [43]: > 100 µM
- TGI [44]: 44.6 µM
- TGI [45]: > 100 µM
- TGI [46]: 47.1 µM
- TGI [47]: > 100 µM
- TGI [48]: > 100 µM
- TGI [49]: > 100 µM
- TGI [50]: > 100 µM
- TGI [51]: > 100 µM
- TGI [52]: > 100 µM

SMILES: COc1ccc(Nc2nc3cc(C(F)(F)F)ccc3nc2C(=O)O)cc1
- TGI [1]: 83.6 µM
- TGI [2]: 35 µM
- TGI [3]: 31.9 µM
- TGI [4]: 26.5 µM
- TGI [5]: 48.1 µM
- TGI [6]: 92.4 µM
- TGI [7]: > 100 µM
- TGI [8]: 72.2 µM
- TGI [9]: > 100 µM
- TGI [10]: 27.2 µM
- TGI [11]: 33.5 µM
- TGI [12]: 35.7 µM
- TGI [13]: 77.6 µM
- TGI [14]: 51.7 µM
- TGI [15]: 57 µM
- TGI [16]: 55.5 µM
- TGI [17]: 67.5 µM
- TGI [18]: 58.5 µM
- TGI [19]: 44.4 µM
- TGI [20]: 61 µM
- TGI [21]: 34.1 µM
- TGI [22]: > 100 µM
- TGI [24]: 54.1 µM
- TGI [25]: > 100 µM
- TGI [26]: 46.7 µM
- TGI [27]: 43.9 µM
- TGI [28]: 28.6 µM
- TGI [29]: 48.3 µM
- TGI [30]: 50.7 µM
- TGI [31]: > 100 µM
- TGI [32]: 30 µM
- TGI [33]: 30.4 µM
- TGI [34]: 28 µM
- TGI [35]: 46.7 µM
- TGI [36]: 39 µM
- TGI [37]: 29.2 µM
- TGI [38]: 60.6 µM
- TGI [39]: 41.4 µM
- TGI [40]: > 100 µM
- TGI [41]: > 100 µM
- TGI [42]: 30.4 µM
- TGI [43]: 90.2 µM
- TGI [53]: 40.8 µM
- TGI [44]: > 100 µM
- TGI [45]: > 100 µM
- TGI [46]: 26.8 µM
- TGI [47]: 39.5 µM
- TGI [49]: 34.1 µM
- TGI [50]: 30 µM
- TGI [51]: > 100 µM
- TGI [52]: 53.3 µM

SMILES: C=C1CCc2ccccc2C1=O
- TGI [1]: > 100 µM
- TGI [2]: > 100 µM
- TGI [3]: > 100 µM
- TGI [4]: > 100 µM
- TGI [5]: > 100 µM
- TGI [6]: > 100 µM
- TGI [7]: > 100 µM
- TGI [8]: > 100 µM
- TGI [9]: > 100 µM
- TGI [10]: > 100 µM
- TGI [54]: > 100 µM
- TGI [11]: > 100 µM
- TGI [12]: > 100 µM
- TGI [13]: > 100 µM
- TGI [14]: > 100 µM
- TGI [15]: > 100 µM
- TGI [16]: > 100 µM
- TGI [17]: > 100 µM
- TGI [18]: > 100 µM
- TGI [19]: > 100 µM
- TGI [20]: > 100 µM
- TGI [21]: 78.9 µM
- TGI [22]: > 100 µM
- TGI [23]: > 100 µM
- TGI [24]: > 100 µM
- TGI [55]: > 100 µM
- TGI [25]: > 100 µM
- TGI [26]: > 100 µM
- TGI [56]: > 100 µM
- TGI [27]: > 100 µM
- TGI [28]: > 100 µM
- TGI [57]: > 100 µM
- TGI [29]: > 100 µM
- TGI [30]: > 100 µM
- TGI [31]: > 100 µM
- TGI [32]: > 100 µM
- TGI [33]: > 100 µM
- TGI [34]: > 100 µM
- TGI [35]: > 100 µM
- TGI [36]: > 100 µM
- TGI [37]: > 100 µM
- TGI [38]: > 100 µM
- TGI [39]: > 100 µM
- TGI [40]: > 100 µM
- TGI [42]: > 100 µM
- TGI [43]: > 100 µM
- TGI [44]: > 100 µM
- TGI [45]: > 100 µM
- TGI [46]: > 100 µM
- TGI [47]: > 100 µM
- TGI [48]: > 100 µM
- TGI [49]: > 100 µM
- TGI [50]: > 100 µM
- TGI [51]: > 100 µM
- TGI [58]: > 100 µM
- TGI [52]: > 100 µM
